# In ChEMBL document CHEMBL1201862, “PubChem BioAssay data set” (2004):
#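 Five compound concentrations were applied to cells in 96-well plates for 48 hours; endpoints were derived by simple linear interpolation of the resulting dose-response curve. GI50 marks 50% less growth.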 Activity calls are given as the source filed them. Rule as the data show it: active = GI50 up to about 1.1 µM and inactive = higher.
# How the values were obtained:
# Experiment in all cases: growth of human tumour cells (NCI), 48 h
# NCI-H23 = test system: NCI-H23
# A549 = test system: A549
# LOX IMVI = test system: LOX IMVI
# SN12C = test system: SN12C
# HCC 2998 = test system: HCC 2998
# Hs-578T = test system: Hs-578T
# U-251 = test system: U-251
# SK-MEL-5 = test system: SK-MEL-5
# COLO 205 = test system: COLO 205
# HCT-116 = test system: HCT-116
# MDA-MB-231 = test system: MDA-MB-231
# OVCAR-4 = test system: OVCAR-4
# MDA-MB-435 = test system: MDA-MB-435
# OVCAR-8 = test system: OVCAR-8
# ACHN = test system: ACHN
# SW-620 = test system: SW-620
# HOP-92 = test system: HOP-92
# OVCAR-5 = test system: OVCAR-5
# NCI-H522 = test system: NCI-H522
# UO-31 = test system: UO-31
Compound,GI50 (NCI-H23),GI50 (A549),GI50 (LOX IMVI),GI50 (SN12C),GI50 (HCC 2998),GI50 (Hs-578T),GI50 (U-251),GI50 (SK-MEL-5),GI50 (COLO 205),GI50 (HCT-116),GI50 (MDA-MB-231),GI50 (OVCAR-4),GI50 (MDA-MB-435),GI50 (OVCAR-8),GI50 (ACHN),GI50 (SW-620),GI50 (HOP-92),GI50 (OVCAR-5),GI50 (NCI-H522),GI50 (UO-31)
CC1CC(=O)Nc2cc(Cl)ccc2N1C(=O)C1CC1 (stereo not given),> 100 µM (inactive),> 100 µM (inactive),> 100 µM (inactive),> 100 µM (inactive),> 100 µM (inactive),> 100 µM (inactive),> 100 µM (inactive),> 100 µM (inactive),> 100 µM (inactive),> 100 µM (inactive),> 100 µM (inactive),> 100 µM (inactive),> 100 µM (inactive),> 100 µM (inactive),> 100 µM (inactive),> 100 µM (inactive),> 100 µM (inactive),> 100 µM (inactive),> 100 µM (inactive),> 100 µM (inactive)
O=S1(=O)CS(=O)(=O)OCCO1,37.8 µM (inactive),46.1 µM (inactive),16.8 µM (inactive),66.1 µM (inactive),46.6 µM (inactive),54.3 µM (inactive),21.3 µM (inactive),40.1 µM (inactive),46.6 µM (inactive),37.7 µM (inactive),128 µM (inactive),52.8 µM (inactive),44.2 µM (inactive),55.3 µM (inactive),15.3 µM (inactive),40.9 µM (inactive),31.2 µM (inactive),85.5 µM (inactive),48.3 µM (inactive),61 µM (inactive)
CN1CCN(c2cc3[nH]c(-c4ccc(Cl)cc4)nc3cc2F)CC1,15.8 µM (inactive),17.6 µM (inactive),10.5 µM (inactive),26.7 µM (inactive),4.71 µM (inactive),16.1 µM (inactive),21.4 µM (inactive),10.6 µM (inactive),18.2 µM (inactive),13.8 µM (inactive),17.4 µM (inactive),22.8 µM (inactive),11.4 µM (inactive),26.9 µM (inactive),12.5 µM (inactive),21.8 µM (inactive),25.4 µM (inactive),15.2 µM (inactive),15.6 µM (inactive),7.1 µM (inactive)
O=CCOCc1cc2c(cc1Br)OCO2,11.8 µM (inactive),> 100 µM (inactive),19.6 µM (inactive),34.5 µM (inactive),> 100 µM (inactive),17.1 µM (inactive),31 µM (inactive),19.3 µM (inactive),> 100 µM (inactive),21.6 µM (inactive),19.7 µM (inactive),20.9 µM (inactive),> 100 µM (inactive),20.7 µM (inactive),23.1 µM (inactive),20.9 µM (inactive),43.9 µM (inactive),> 100 µM (inactive),15.7 µM (inactive),21.1 µM (inactive)
CCN1CCC(O)(/C=C/c2ccc(C)cc2C)C(C(=O)/C=C/c2ccc(C)cc2C)C1 (stereo not given),2.77 µM (inactive),4 µM (inactive),1.76 µM (inactive),2.72 µM (inactive),1.69 µM (inactive),2.09 µM (inactive),3.39 µM (inactive),3.04 µM (inactive),1.98 µM (inactive),2.22 µM (inactive),2.23 µM (inactive),2.99 µM (inactive),2.51 µM (inactive),2.09 µM (inactive),1.83 µM (inactive),3.16 µM (inactive),1.85 µM (inactive),4.29 µM (inactive),1.84 µM (inactive),2.35 µM (inactive)
CN(C)CCO/N=C1/C=C2CC[C@H]3[C@@H]4CC[C@H](O)[C@@]4(C)CC[C@@H]3[C@@]2(C)CC1,11.4 µM (inactive),18.3 µM (inactive),15.9 µM (inactive),11.7 µM (inactive),9.82 µM (inactive),4.91 µM (inactive),10.1 µM (inactive),8.71 µM (inactive),16.2 µM (inactive),10.5 µM (inactive),12.9 µM (inactive),2.49 µM (inactive),3.49 µM (inactive),13.9 µM (inactive),15.4 µM (inactive),10.7 µM (inactive),7.85 µM (inactive),12.5 µM (inactive),1.67 µM (inactive),12.3 µM (inactive)
Cc1ccc(-c2cc(-c3ccc(Cl)cc3)nc(/N=C3\C(=O)N(CN4CCOCC4)c4ccc(Cl)cc43)n2)cc1,19.6 µM (inactive),27.2 µM (inactive),31.8 µM (inactive),24.7 µM (inactive),19.1 µM (inactive),24.3 µM (inactive),17.7 µM (inactive),18.1 µM (inactive),20.2 µM (inactive),17.4 µM (inactive),30 µM (inactive),29.3 µM (inactive),24.4 µM (inactive),20.9 µM (inactive),19.9 µM (inactive),6.49 µM (inactive),17.9 µM (inactive),26.4 µM (inactive),15.4 µM (inactive),24.9 µM (inactive)
C[C@H]1CCC/C=C/[C@@H]2C[C@H](OC3OC(CO)C(O)C(O)C3O)C[C@H]2[C@H](O)/C=C/C(=O)O1 (stereo not given in full),53.1 µM (inactive),88.7 µM (inactive),36.1 µM (inactive),> 100 µM (inactive),29.7 µM (inactive),30.1 µM (inactive),94 µM (inactive),17.2 µM (inactive),17.2 µM (inactive),77.8 µM (inactive),20.4 µM (inactive),78.5 µM (inactive),50.6 µM (inactive),39.5 µM (inactive),> 100 µM (inactive),35.9 µM (inactive),> 100 µM (inactive),37.3 µM (inactive),44 µM (inactive),24.4 µM (inactive)
O=c1ccn(CC2(CO)CCC2)c(=O)[nH]1,> 100 µM (inactive),> 100 µM (inactive),> 100 µM (inactive),> 100 µM (inactive),> 100 µM (inactive),> 100 µM (inactive),> 100 µM (inactive),> 100 µM (inactive),> 100 µM (inactive),> 100 µM (inactive),> 100 µM (inactive),> 100 µM (inactive),> 100 µM (inactive),> 100 µM (inactive),> 100 µM (inactive),> 100 µM (inactive),> 100 µM (inactive),> 100 µM (inactive),> 100 µM (inactive),> 100 µM (inactive)
COc1ccc2[nH]cc(C(=O)C(=O)NC34CC5CC(CC(C5)C3)C4)c2c1,> 72.6 µM (inactive),26.2 µM (inactive),7.21 µM (inactive),18.9 µM (inactive),28.1 µM (inactive),21.4 µM (inactive),13.5 µM (inactive),32.2 µM (inactive),6.9 µM (inactive),20.6 µM (inactive),40.1 µM (inactive),29.6 µM (inactive),41.3 µM (inactive),35.6 µM (inactive),29.4 µM (inactive),38.9 µM (inactive),29.5 µM (inactive),35.2 µM (inactive),36.7 µM (inactive),> 100 µM (inactive)
COc1cc2ccc1OCc1cccc(n1)COc1ccc(cc1OC)/C=N\c1ccc(cc1)/N=C\2,> 100 µM (inactive),> 100 µM (inactive),> 100 µM (inactive),> 100 µM (inactive),> 100 µM (inactive),54.2 µM (inactive),> 100 µM (inactive),> 100 µM (inactive),> 100 µM (inactive),> 100 µM (inactive),> 100 µM (inactive),> 100 µM (inactive),> 100 µM (inactive),> 100 µM (inactive),> 100 µM (inactive),> 100 µM (inactive),> 100 µM (inactive),> 100 µM (inactive),> 100 µM (inactive),> 100 µM (inactive)
COC(=O)C1=C(C)NC(C)=C(C(=O)OC)C1c1cccc(NO)c1,16.3 µM (inactive),> 100 µM (inactive),16 µM (inactive),18.5 µM (inactive),56.8 µM (inactive),18.4 µM (inactive),16.1 µM (inactive),15.5 µM (inactive),16.7 µM (inactive),13 µM (inactive),16.6 µM (inactive),13.9 µM (inactive),16.8 µM (inactive),16.4 µM (inactive),12.8 µM (inactive),13.7 µM (inactive),11.5 µM (inactive),16.4 µM (inactive),7 µM (inactive),11.5 µM (inactive)
CC[C@H]1C=CCC[C@@]2(C[C@@H]3CC[C@@H]4[C@H](C(=O)OCCCCCCCCCCCCCCCC(=O)N(CCCN)CCCCN)[C@]5(CCC[C@@H](C)O5)NC(=[N+]34)N2)O1,0.0724 µM (active),0.0365 µM (active),0.018 µM (active),0.0753 µM (active),0.0641 µM (active),0.0875 µM (active),0.0561 µM (active),< 0.01 µM (active),0.0336 µM (active),0.0275 µM (active),0.275 µM (active),1.34 µM (inactive),< 0.01 µM (active),0.155 µM (active),0.0826 µM (active),0.0547 µM (active),0.0224 µM (active),0.108 µM (active),0.0425 µM (active),0.0519 µM (active)
